Source: patent US11299485B2, “Thiophene derivative and use thereof” (FUJIMOTO CO., LTD., priority 2018, dated 2022)

How the values were obtained:
Type in all cases: cell-based
Pfeiffer cells = experiment: Human diffuse large B-cell lymphoma cell line Pfeiffer proliferation suppression test; details: 144 h, compound 10 μM, 3 days + re-plating with compound 3 days, WST-8, read-out: cell survival rate (% of control) Pfeiffer
Method in brief: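 Pfeiffer cells were seeded at 1.3×10^5 cells/mL and dosed the next day with compound at 10 μM final (DMSO control), then grown 3 days at 37 °C, 5% CO2. An aliquot was then passaged into a fresh plate with compound re-added at 10 μM final for 3 more days. Proliferation was read by WST-8.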

REC-1 cells = experiment: Human mantle cell lymphoma cell line REC-1 proliferation suppression test; details: Rec1, 72 h, compound 10 μM, 3 days, WST-8, read-out: cell survival rate (% of control) REC-1
Method in brief: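 Cells were plated at 1.3×10^5 cells/mL, and the next day test compound was added at a final 10 μM, with DMSO-only medium as control. After 3 days at 37° C under 5% CO2, proliferation was measured with WST-8.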

TNF-α production = experiment: Human TNF-α production suppression test (LPS-stimulated peripheral blood mononuclear cells, ELISA); details: PBMC, compound 10 μg/mL, 24 hr, control well = 100, read-out: TNF-α production suppressive rate (%)
Procedure: Example 50: Human TNF-α Production Suppression Test
Peripheral blood of a healthy adult was collected in a vacuum blood collection tube (Terumo, containing EDTA/2Na), and then diluted two-fold with an equal volume of OTSUKA NORMAL SALINE (Otsuka Pharmaceutical Co., Ltd.). The diluted blood was mixed with Lymphoprep (AXIS-SHIELD) in half the volume of the diluted blood, dispensed into a 15 mL conical tube, and centrifuged at room temperature for 20 min (2,100 rpm). The mononuclear cells accumulated at the interface between Lymphoprep and plasma was transferred to a 50 mL conical tube, diluted with OTSUKA NORMAL SALINE, and the mononuclear cells suspension was centrifuged at room temperature for 10 min (1,150 rpm) and then the supernatant was removed. The mononuclear cells fraction obtained as a precipitate was suspended in an appropriate amount of 10% fetal calf serum (Thermo Fisher Scientific)-containing RPMI1640 medium (Thermo Fisher Scientific, hereinafter abbreviated as medium A), and diluted as appropriate with 0.4% trypan blue solution (Sigma-Aldrich Co. LLC.). The number of viable cells was counted with a hemocytometer (ERMA INC.). It was diluted with medium A such that the value obtained was 5×10^5 cells/mL. On the other hand, 75 μL of medium A, 5 μL of 0.4 mg/mL test compound solution (DMSO solution 10-fold diluted with medium A), and 20 μL of 10 μg/mL lipopolysaccharide (Sigma-Aldrich Co. LLC.) solution (diluted with medium A) were each added in advance to the same well of a Falcon 96-well flat bottom plate (Corning Incorporated), and the above-mentioned cell suspension was dispensed at 0.1 mL/well. 5 μL of DMSO diluted 10-fold with medium A was added to the control well instead of the compound solution. After culturing at 37° C. in a 5% CO2 stream for 24 hr, the culture solution was centrifuged at 4° C., 1,000 rpm for 3 min and the supernatant was recovered. The content of TNF-α in the supernatant was measured using an ELISA kit (Peprotech) according to a conventional method. The amount of TNF-α produced in the well containing the test compound was determined with the amount of TNF-α produced in the control well as 100, and the suppression rate was calculated for each test.

With `COCc1ccc(COc2cscc2-c2cn(C3CCC(=O)NC3=O)nn2)cc1` (stereo not drawn) [compound 37, 3-(4-{4-[4-(methoxymethyl)benzyloxy]thiophen-3-yl}-1H-1,2,3-triazol-1-yl)piperidine-2,6-dione] the viability at 10 µM (Pfeiffer cells) was 71%, the viability at 10 µM (REC-1 cells) was 17% and the inhibition at 10 µg/mL (TNF-α production) was 81%.

In the case of `COc1c(-c2cn(C3CCC(=O)NC3=O)nn2)csc1Br` (stereo not drawn) [compound 23, 3-[4-(5-bromo-4-methoxythiophen-3-yl)-1H-1,2,3-triazol-1-yl]piperidine-2,6-dione], the viability at 10 µM (Pfeiffer cells) is reported as 97%, the viability at 10 µM (REC-1 cells) is reported as 70% and the inhibition at 10 µg/mL (TNF-α production) is reported as 62%.

Compound `O=C1CCC(n2cc(-c3cscc3OCc3cccnc3)nn2)C(=O)N1` (stereo not drawn) [compound 35, 3-{4-[4-(pyridin-3-ylmethoxy)thiophen-3-yl]-1H-1,2,3-triazol-1-yl}piperidine-2,6-dione] has a viability at 10 µM (Pfeiffer cells) of 104%, a viability at 10 µM (REC-1 cells) of 39% and an inhibition at 10 µg/mL (TNF-α production) of 70%.

`CC(C)Oc1cscc1-c1cn(C2CCC(=O)NC2=O)nn1` (stereo not drawn) [compound 26, 3-[4-(4-isopropoxythiophen-3-yl)-1H-1,2,3-triazol-1-yl]piperidine-2,6-dione] showed a viability at 10 µM (Pfeiffer cells) of 82%, a viability at 10 µM (REC-1 cells) of 23% and an inhibition at 10 µg/mL (TNF-α production) of 83%.

`CC(=O)c1ccc(-c2cn(C3CCC(=O)NC3=O)nn2)s1` (stereo not drawn) [compound 8, 3-[4-(5-acetylthiophen-2-yl)-1H-1,2,3-triazol-1-yl]piperidine-2,6-dione] was tested, and the viability at 10 µM (Pfeiffer cells) was 107%, the viability at 10 µM (REC-1 cells) was 99% and the inhibition at 10 µg/mL (TNF-α production) was 64%.
